This passage reports Kd results from PMC9254439 (Virologica Sinica, 2022).

For orientation: Kd means the free concentration of one partner at which half of the binding sites on the other are occupied at equilibrium, for simple one-to-one binding. Low values mean higher affinity, high ones lower affinity.

In assay [1] the target is SARS-CoV-2 spike trimer protein (Severe acute respiratory syndrome coronavirus 2, UniProt P0DTC2). Put plainly: biochemical. It counts as binding.
For assay [2], the target named is SARS-CoV-2 spike monomer protein (Severe acute respiratory syndrome coronavirus 2, UniProt P0DTC2). The assay is described as follows: biochemical. It counts as binding.

Where no end group is shown, it is not given here.

Take NFWISPKLAFALGGGS [Spep-1]: the dissociation constant (Kd) in assay [1] worked out at 1.7 nM; in assay [2], 2.14 nM.
